The record followed here is paper PMC10650756, “Synthesis and In Vivo Antiarrhythmic Activity Evaluation of Novel Scutellarein Analogues as Voltage-Gated Nav1.5 and Cav1.2 Channels Blockers” (Molecules, 2023).

What all share (type): cell-based
The target of experiment [1] is T1, Cav1.2 (Homo sapiens, UniProt Q13936).
T1 construct: gene CACNA1C; human Cav1.2 expressed in HEK293 cells (plasmid printed as pCDNA3.1hCACNA2D)
In words: whole-cell patch clamp of ICa in transfected HEK293 cells, VH -80 mV; IC50 undefined (solubility). As to conditions: read-out: % reduction of ICa amplitude at 30 μM. (Patch clamp records ionic current or voltage across a cell membrane.)

Experiment [2] deals with T2, Nav1.5 (Homo sapiens, UniProt Q14524).
T2 construct: gene SCN5A; human Nav1.5 (pCDNA3.1hSCN5A) expressed in HEK293 cells
T2 sequence (Q14524 whole entry): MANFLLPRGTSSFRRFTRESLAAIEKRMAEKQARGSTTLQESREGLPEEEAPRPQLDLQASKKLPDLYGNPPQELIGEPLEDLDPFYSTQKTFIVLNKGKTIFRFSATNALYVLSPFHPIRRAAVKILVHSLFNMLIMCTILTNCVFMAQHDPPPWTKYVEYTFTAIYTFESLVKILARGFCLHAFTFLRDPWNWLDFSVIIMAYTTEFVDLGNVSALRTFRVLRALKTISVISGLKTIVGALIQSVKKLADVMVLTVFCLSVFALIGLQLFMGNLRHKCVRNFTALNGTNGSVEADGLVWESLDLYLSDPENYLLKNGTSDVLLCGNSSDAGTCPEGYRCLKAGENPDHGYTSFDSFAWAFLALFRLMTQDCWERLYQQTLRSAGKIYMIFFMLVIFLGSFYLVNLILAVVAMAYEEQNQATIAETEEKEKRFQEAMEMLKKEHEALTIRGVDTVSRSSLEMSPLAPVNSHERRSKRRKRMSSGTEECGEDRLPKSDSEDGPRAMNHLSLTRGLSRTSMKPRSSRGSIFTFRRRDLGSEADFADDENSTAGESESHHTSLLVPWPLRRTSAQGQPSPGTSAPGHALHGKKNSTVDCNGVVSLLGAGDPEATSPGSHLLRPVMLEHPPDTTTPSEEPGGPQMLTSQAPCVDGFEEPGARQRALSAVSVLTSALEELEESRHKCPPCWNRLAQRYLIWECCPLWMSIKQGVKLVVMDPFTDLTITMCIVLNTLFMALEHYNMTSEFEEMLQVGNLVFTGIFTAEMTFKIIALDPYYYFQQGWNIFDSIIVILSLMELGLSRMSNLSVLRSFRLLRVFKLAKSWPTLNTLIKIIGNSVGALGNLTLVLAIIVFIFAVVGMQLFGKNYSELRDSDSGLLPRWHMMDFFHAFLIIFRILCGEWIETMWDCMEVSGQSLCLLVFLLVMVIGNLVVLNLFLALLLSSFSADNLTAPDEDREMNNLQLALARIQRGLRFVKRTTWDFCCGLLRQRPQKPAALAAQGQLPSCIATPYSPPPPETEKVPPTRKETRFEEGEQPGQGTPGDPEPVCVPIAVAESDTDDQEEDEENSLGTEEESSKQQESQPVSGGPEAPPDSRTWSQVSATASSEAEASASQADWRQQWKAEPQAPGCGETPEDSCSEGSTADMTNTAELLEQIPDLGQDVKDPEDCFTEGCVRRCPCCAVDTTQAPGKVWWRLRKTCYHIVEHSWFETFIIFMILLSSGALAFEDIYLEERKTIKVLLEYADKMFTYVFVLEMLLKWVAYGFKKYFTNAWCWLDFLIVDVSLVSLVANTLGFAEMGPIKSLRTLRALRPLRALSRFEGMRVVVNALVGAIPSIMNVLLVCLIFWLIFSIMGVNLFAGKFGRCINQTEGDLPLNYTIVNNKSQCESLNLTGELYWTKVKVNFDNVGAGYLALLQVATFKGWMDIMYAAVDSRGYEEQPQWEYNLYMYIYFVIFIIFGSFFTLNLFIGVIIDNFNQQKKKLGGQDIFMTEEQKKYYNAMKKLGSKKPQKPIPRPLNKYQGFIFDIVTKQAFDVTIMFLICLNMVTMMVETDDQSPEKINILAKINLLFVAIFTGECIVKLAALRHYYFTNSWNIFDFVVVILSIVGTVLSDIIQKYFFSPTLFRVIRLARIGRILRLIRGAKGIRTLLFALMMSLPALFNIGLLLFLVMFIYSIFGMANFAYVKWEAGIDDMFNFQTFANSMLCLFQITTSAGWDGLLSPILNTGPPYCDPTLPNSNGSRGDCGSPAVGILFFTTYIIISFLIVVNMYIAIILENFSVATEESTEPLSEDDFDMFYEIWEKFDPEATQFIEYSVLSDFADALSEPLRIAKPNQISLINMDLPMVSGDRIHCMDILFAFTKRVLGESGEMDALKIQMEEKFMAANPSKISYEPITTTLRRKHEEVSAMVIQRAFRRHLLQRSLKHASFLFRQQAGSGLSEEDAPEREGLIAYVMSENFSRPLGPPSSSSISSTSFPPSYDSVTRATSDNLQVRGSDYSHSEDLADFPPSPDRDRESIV
Description: whole-cell patch clamp in transfected HEK293 cells; steady-state inactivation left-shifted at […], no change in current density or activation.

For experiment [3], the target named is T1, Cav1.2. Description: whole-cell patch clamp of ICa in transfected HEK293 cells, VH -80 mV. As to conditions: read-out: % reduction of ICa amplitude at 1 μM.

T1 sequence (Q13936 whole entry): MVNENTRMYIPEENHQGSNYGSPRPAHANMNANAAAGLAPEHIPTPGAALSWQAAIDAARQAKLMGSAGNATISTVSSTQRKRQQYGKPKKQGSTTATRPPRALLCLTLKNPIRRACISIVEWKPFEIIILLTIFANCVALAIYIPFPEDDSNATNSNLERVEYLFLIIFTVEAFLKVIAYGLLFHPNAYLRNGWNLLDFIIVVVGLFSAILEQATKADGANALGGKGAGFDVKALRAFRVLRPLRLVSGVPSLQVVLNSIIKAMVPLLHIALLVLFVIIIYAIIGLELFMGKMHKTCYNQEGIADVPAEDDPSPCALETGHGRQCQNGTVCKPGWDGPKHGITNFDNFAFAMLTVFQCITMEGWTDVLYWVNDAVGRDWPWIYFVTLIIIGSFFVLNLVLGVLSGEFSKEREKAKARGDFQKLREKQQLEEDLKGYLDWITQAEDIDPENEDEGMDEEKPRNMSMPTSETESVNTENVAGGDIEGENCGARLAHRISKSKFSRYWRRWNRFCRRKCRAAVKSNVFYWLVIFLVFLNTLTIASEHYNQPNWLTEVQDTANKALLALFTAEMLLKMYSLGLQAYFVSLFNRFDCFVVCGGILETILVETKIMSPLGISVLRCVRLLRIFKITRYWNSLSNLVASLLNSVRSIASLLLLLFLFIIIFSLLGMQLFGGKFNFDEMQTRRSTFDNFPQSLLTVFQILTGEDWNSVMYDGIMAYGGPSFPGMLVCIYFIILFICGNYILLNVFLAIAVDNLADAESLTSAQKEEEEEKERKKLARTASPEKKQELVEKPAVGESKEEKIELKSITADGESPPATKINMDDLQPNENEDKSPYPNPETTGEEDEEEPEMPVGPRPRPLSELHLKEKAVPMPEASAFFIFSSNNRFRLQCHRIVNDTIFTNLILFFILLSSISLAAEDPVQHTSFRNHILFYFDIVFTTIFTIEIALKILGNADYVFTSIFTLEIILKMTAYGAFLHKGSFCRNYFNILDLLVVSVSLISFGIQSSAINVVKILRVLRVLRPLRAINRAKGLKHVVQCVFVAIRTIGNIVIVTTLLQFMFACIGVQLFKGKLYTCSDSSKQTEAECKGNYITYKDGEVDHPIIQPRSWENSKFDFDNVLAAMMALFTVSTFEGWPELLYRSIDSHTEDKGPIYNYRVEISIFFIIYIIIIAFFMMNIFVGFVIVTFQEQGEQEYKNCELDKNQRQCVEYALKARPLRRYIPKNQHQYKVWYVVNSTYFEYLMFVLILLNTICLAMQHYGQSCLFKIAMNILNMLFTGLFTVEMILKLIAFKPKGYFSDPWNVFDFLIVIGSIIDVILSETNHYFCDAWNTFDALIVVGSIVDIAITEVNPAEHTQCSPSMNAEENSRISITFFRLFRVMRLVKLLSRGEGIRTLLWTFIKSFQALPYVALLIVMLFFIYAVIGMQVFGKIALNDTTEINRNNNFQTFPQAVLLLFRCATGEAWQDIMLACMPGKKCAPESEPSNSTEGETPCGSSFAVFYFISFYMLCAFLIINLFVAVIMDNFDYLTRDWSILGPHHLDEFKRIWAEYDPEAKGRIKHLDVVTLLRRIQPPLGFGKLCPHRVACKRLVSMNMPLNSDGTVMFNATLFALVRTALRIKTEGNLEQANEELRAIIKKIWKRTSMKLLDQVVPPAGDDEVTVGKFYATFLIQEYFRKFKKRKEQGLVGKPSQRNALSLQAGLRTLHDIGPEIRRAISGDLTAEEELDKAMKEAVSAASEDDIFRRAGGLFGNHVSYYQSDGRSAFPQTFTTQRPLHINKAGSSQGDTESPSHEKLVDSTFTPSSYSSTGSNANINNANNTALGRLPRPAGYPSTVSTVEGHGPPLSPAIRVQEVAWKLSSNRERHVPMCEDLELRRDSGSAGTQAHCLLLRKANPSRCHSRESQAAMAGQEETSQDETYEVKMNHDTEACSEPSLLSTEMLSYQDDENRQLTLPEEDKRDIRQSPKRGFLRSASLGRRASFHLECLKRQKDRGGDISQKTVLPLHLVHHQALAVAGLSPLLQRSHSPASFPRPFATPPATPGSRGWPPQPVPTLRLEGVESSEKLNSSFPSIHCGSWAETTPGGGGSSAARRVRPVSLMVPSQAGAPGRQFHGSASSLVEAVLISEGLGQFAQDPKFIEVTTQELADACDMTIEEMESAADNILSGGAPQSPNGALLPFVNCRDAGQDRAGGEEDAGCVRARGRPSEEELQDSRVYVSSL

Take `CC(=O)Oc1ccc(-c2cc(=O)c3c(O)c4c(cc3o2)OC(c2ccccc2)(c2ccccc2)O4)cc1` [10e, 4-(9-Hydroxy-8-oxo-2,2-diphenyl-8H-[1,3]dioxolo[4,5-g]chromen-6-yl)phenyl acetate]: the inhibition at 30 µM in experiment [1] was around 32.6%. Besides, the “whole-cell patch clamp in transfected HEK293 cells; steady-state inactivation le” value in experiment [2] is recorded as −94.1 ± 1.7 mV (inactivation V1/2 at 30 μM; control −84.4 ± 0.6 mV).

`COC(=O)C1=C(C)NC(C)=C(C(=O)OC)C1c1ccccc1[N+](=O)[O-]` [Nifedipine]: in experiment [3], the inhibition at 1 µM is around 97.9%.
